pIC50: −log10 of the molar value. Read-outs that look alike come from different tables or passages of the source.

As usually defined, the IC50 is the point on the concentration scale where inhibition reaches its midpoint. A low value points to inhibition by little substance. A word on the pIC50: it is −log10 of the IC50, conventionally taken in molar units.

The target of the assay is T1, 11β-HSD1 (Homo sapiens, UniProt P28845).
T1 construct: detecting cortisol generated from cortisterone by human liver microsomes; from tissue; host or cells: human liver microsomes
Kind of assay: In vitro inhibition of 11β-HSD1, HTRF detection of cortisol generated from cortisone by human liver microsomes. Type of assay: biochemical. To be noted: 1 hour at 37° C., pH 6.0, NADPH 200 μM, cortisone 80 nM, inhibition relative to carbenoxolone signal; for IC50: 11β-HSD IC50 (nM); for pIC50: read-out: 11β-HSD IC50. An outline of the steps:
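Inhibition expressed against the carbenoxolone signal and fitted to IC50 curves. Readout: HTRF competition between microsomal cortisol and XL665-labelled cortisol for Eu-cryptate anti-cortisol antibody (typically 2 h), with emission ratio 665/615 calibrated to cortisol concentration.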
(In TR-FRET formats the signal depends on donor and acceptor labels being close together.)

T1 sequence (P28845 whole entry): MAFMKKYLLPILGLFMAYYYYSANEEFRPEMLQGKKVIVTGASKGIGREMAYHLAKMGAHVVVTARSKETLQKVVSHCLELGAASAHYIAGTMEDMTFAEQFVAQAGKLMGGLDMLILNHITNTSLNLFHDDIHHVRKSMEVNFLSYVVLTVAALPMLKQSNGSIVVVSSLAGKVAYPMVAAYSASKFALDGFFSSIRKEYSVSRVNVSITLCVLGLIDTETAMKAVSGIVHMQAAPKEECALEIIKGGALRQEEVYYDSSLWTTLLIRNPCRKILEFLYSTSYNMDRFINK

The compound `CC1(C)[C@H]2Cc3cc4nccnc4cc3[C@]1(C)CCN2C(=O)c1ccc2nc[nH]c2c1` [Example 235, (3H-Benzoimidazol-5-yl)-[(7R,11S)-6,7,8,9,10,11-hexahydro-11,13,13-trimethyl-6,10-methano-pyrazino[2,3-i][3]benzazocin-8-yl]-methanone] showed an IC50 of 95 nM. On to `C[C@H]1[C@H]2CC3=CC(C#N)CC=C3[C@]1(C)CCN2C(=O)c1ccc2nc[nH]c2c1` (stereo partly drawn) [Example 236, (2R,6R,11R)-3-(3H-Benzoimidazole-5-carbonyl)-6,11-dimethyl-1,2,3,4,5,6,8,9-octahydro-2,6-methano-benzo[d]azocine-9-carbonitrile], for which the pIC50 is 6.72. For `CN(C)S(=O)(=O)c1ccc2c(c1)C[C@H]1N(C(=O)c3ccc4nc[nH]c4c3)CC[C@]2(C)C1(C)C` [Example 237, (2R,6S)-3-(3H-Benzoimidazole-5-carbonyl)-6,11,11-trimethyl-1,2,3,4,5,6-hexahydro-2,6-methano-benzo[d]azocine-9-sulfonic acid dimethylamide], 916 nM corresponded to half-maximal inhibition (IC50). Regarding `Cc1nc2cc3c(cc2[nH]1)[C@]1(C)CCN(C(=O)c2ccc4nc[nH]c4c2)[C@H](C3)C1(C)C` [Example 238, (3H-Benzoimidazol-5-yl)-[(6R,10S)-5,6,7,8,9,10-hexahydro-2,10,12,12-tetramethyl-6,10-methano-1H-imidazo[5,4-i][3]benzazocin-7-yl]-methanone], the IC50 worked out at 24 nM. The same measure, in the same setting: the value for `CC1(C)[C@H]2Cc3cc4nc[nH]c4cc3[C@]1(C)CCN2C(=O)c1ccc2nc[nH]c2c1` [Example 239, (3H-Benzoimidazol-5-yl)-[(6R,10S)-5,6,7,8,9,10-hexahydro-10,12,12-trimethyl-6,10-methano-1H-imidazo[5,4-i][3]benzazocin-7-yl]-methanone] was 24 nM; that for `Cn1cnc2cc3c(cc21)C[C@H]1N(C(=O)c2ccc4nc[nH]c4c2)CC[C@]3(C)C1(C)C` [Example 240, (3H-Benzoimidazol-5-yl)-[(6R,10S)-5,6,7,8,9,10-hexahydro-3,10,12,12-tetramethyl-6,10-methano-imidazo[4,5-i][3]benzazocin-7-yl]-methanone] was 51 nM; that for `Cn1cnc2cc3c(cc21)[C@]1(C)CCN(C(=O)c2ccc4nc[nH]c4c2)[C@H](C3)C1(C)C` [Example 241, (3H-Benzoimidazol-5-yl)-[(6R,10S)-5,6,7,8,9,10-hexahydro-1,10,12,12-tetramethyl-6,10-methano-imidazo[5,4-i][3]benzazocin-7-yl]-methanone] was 204 nM. `Cc1nc2cc3c(cc2n1C)[C@]1(C)CCN(C(=O)c2ccc4nc[nH]c4c2)[C@H](C3)C1(C)C` [Example 242, (3H-Benzoimidazol-5-yl)-[(6R,10S)-5,6,7,8,9,10-hexahydro-1,2,10,12,12-pentamethyl-6,10-methano-imidazo[5,4-i][3]benzazocin-7-yl]-methanone]: the IC50 amounted to 547 nM.

For the compound `Cc1nc2cc3c(cc2n1C)C[C@H]1N(C(=O)c2ccc4nc[nH]c4c2)CC[C@]3(C)C1(C)C` [Example 243, (3H-Benzoimidazol-5-yl)-[(6R,10S)-5,6,7,8,9,10-hexahydro-2,3,10,12,12-pentamethyl-6,10-methano-imidazo[4,5-i][3]benzazocin-7-yl]-methanone], the half-inhibitory concentration (IC50) stood at 113 nM.

As to `O=C(c1ccc2nc[nH]c2c1)N1CCC2CC1Cc1c2[nH]c2ccccc12` (stereo not drawn) [Example 245, (3H-Benzoimidazol-5-yl)-(2,3,4,5,6,7-hexahydro-2,6-methano-azocino[5,4-b]indol-3-yl)-methanone], the pIC50 was 6.59.

`C[C@@H]1[C@@H]2Cc3ccc(O)cc3[C@@]1(C)CCN2C(=O)c1ccc2nc[nH]c2c1` [Example 246, (3H-Benzoimidazol-5-yl)-[(2S,6S,11S)-8-hydroxy-6,11-dimethyl-1,2,5,6-tetrahydro-4H-2,6-methano-benzo[d]azocin-3-yl)-methanone] gave an IC50 of 637 nM. In the case of `C[C@H]1[C@H]2Cc3ccc(O)cc3[C@]1(C)CCN2C(=O)c1ccc2nc[nH]c2c1` [Example 247, (3H-Benzoimidazol-5-yl)-[(2R,6R,11R)-8-hydroxy-6,11-dimethyl-1,2,5,6-tetrahydro-4H-2,6-methano-benzo[d]azocin-3-yl)-methanone], the half-maximal inhibitory concentration (IC50) worked out at 190 nM. The same measure, in the same setting: to `Cc1ccc2[nH]cc(C(=O)N3CC[C@@]4(C)c5cccc(O)c5C[C@@H]3C4(C)C)c2c1` [Example 248, [(2R,6S)-10-Hydroxy-6,11,11-trimethyl-1,2,5,6-tetrahydro-4H-2,6-methano-benzo[d]azocin-3-yl)-(5-methyl-1H-indol-3-yl)-methanone] belongs 1510 nM; to `C[C@@H]1[C@H]2Cc3ccc(-c4ccccc4)cc3[C@]1(C)CCN2C(=O)c1ccc2nc[nH]c2c1` [Example 249, (3H-Benzoimidazol-5-yl)-[(2R,6R,11S)-6,11-dimethyl-8-phenyl-1,2,5,6-tetrahydro-4H-2,6-methano-benzo[d]azocin-3-yl)-methanone], 265 nM. As to `C[C@@H]1[C@H]2Cc3ccc(-c4cccnc4)cc3[C@]1(C)CCN2C(=O)c1ccc2nc[nH]c2c1` [Example 250, (3H-Benzoimidazol-5-yl)-[(2R,6R,11S)-6,11-dimethyl-8-pyridin-3-yl-1,2,5,6-tetrahydro-4H-2,6-methano-benzo[d]azocin-3-yl]-methanone], the midpoint of inhibition, the IC50, lay at 53 nM.

Take `C[C@@H]1[C@H]2Cc3ccc(-c4ccncc4)cc3[C@]1(C)CCN2C(=O)c1ccc2nc[nH]c2c1` [Example 251, (3H-Benzoimidazol-5-yl)-[(2R,6R,11S)-6,11-dimethyl-8-pyridin-4-yl-1,2,5,6-tetrahydro-4H-2,6-methano-benzo[d]azocin-3-yl]-methanone]: half-maximal inhibition (IC50) required 66 nM. `C[C@@H]1[C@H]2Cc3ccc(-c4cncnc4)cc3[C@]1(C)CCN2C(=O)c1ccc2nc[nH]c2c1` [Example 252, (3H-Benzoimidazol-5-yl)-[(2R,6R,11S)-6,11-dimethyl-8-pyrimidin-5-yl-1,2,5,6-tetrahydro-4H-2,6-methano-benzo[d]azocin-3-yl]-methanone] showed a concentration for half-maximal inhibition (IC50) of 61 nM.

Turning to `Cc1cnc2cc3c(cc2n1)C[C@H]1N(C(=O)c2ccc4nc[nH]c4c2)CC[C@]3(C)C1(C)C` [Example 254, (3H-Benzoimidazol-5-yl)-[(7R,11S)-6,7,8,9,10,11-hexahydro-3,11,13,13-tetramethyl-7,11-methano-pyrazino[2,3-i][3]benzazocin-8-yl]-methanone], 742 nM corresponded to half-maximal inhibition (IC50). The same measure, in the same setting: to `Cc1cnc2cc3c(cc2n1)[C@]1(C)CCN(C(=O)c2ccc4nc[nH]c4c2)[C@H](C3)C1(C)C` [Example 255, (3H-Benzoimidazol-5-yl)-[(7R,11S)-6,7,8,9,10,11-hexahydro-2,11,13,13-tetramethyl-7,11-methano-pyrazino[2,3-i][3]benzazocin-8-yl]-methanone] belongs 742 nM; to `Cn1cc(C(=O)N2CC[C@@]3(C)c4ccccc4C[C@@H]2C3(C)C)c2ccccc21` [Example 256, (1-Methyl-1H-indol-3-yl)-[(2R,6S)-6,11,11-trimethyl-1,2,5,6-tetrahydro-4H-2,6-methano-benzo[d]azocin-3-yl]-methanone], 222 nM; to `Cn1nnc2cc3c(cc21)[C@]1(C)CCN(C(=O)c2ccc4nc[nH]c4c2)[C@H](C3)C1(C)C` [Example 257, (3H-Benzoimidazol-5-yl)-[(6R,10S)-5,6,7,8,9,10-hexahydro-1,10,12,12-tetramethyl-6,10-methano-triazolo[5,4-i][3]benzazocin-7-yl]-methanone], 209 nM.

Source of the values: patent US8859580B2 (Boehringer Ingelheim International GmbH, priority 2007, dated 2014).
